Reference: patent US11260027B2, “Donor organ pre-treatment formulation” (MUSC FOUNDATION FOR RESEARCH DEVELOPMENT, priority 2015, dated 2022)

How the values were obtained:
HUVEC = system: HUVEC
Experimental: (§1) Human Umbilical Vein Endothelial Cells (HUVEC), complete endothelial growth medium-2 (EGM-2) and bullet kit were purchased from Lonza (Walkersville, Md.). Cells were grown and maintained in a humidified 37° C. and 5% CO2 atmosphere. Cells were expanded on T75 cm^2 polystyrene flasks to passage 5 and plated onto 6-well plates for experimental assays (Fischer Scientific, Pittsburgh, Pa.). MCEC, a normal mouse cardiac endothelial cell line from Cedarlane (Ontario, Canada), were cultured in Dulbecco's Modified Eagle Medium (DMEM) (Life Technologies, CA) supplemented with 10% fetal bovine serum (FBS) in a 37° C. incubator with humidified room air and 5% CO2.
(§2) M-Per lysis of Ecs was used as an assay control.

MCEC = system: MCEC
Experimental: as §1, §2

aortic allograft = experiment: Aortic allograft model of chronic allograft rejection (Balb/c to C57Bl/6); format: in vivo, mouse; details: 100 or 1000 ng/ml tested; quantified intimal thickening
Experimental: Male Balb/c (H-2^d) and C57BL/6 (B6;H-2^b) mice (8-10 weeks) were obtained from Jackson laboratory (Bar Harbor, Me.). All mice weighed 25-30 g and were housed under specific pathogen-free conditions at the Medical University of South Carolina (Charleston, S.C.) and were used for transplantation studies. In the following series, transplants to male B6 mice were performed under clean conditions using Balb/c donors in the allograft group (Balb/c to B6, n=20) and B6 donors in the isograft group (B6 to B6, n=10). The mice were anesthetized with intraperitoneal injections of ketamine (75 mg/kg, Lloyd Laboratories, Shenandoah, Iowa, USA) and xylazine (16 mg/kg, Vedco, Inc., St. Joseph, Mo., USA) diluted in sterile normal saline. An operating microscope with 16×magnification was used for the surgical procedure. The cuff used for the anastamosis consisted of a 0.6 mm body and a 0.6 mm extension crafted from a 24 gauge polyimide catheter (inner diameter 0.5 mm, wall thickness 0.025 mm, cat. No. 141-0027, Vention Medical, NH, USA).
After satisfactory anesthetic was administered, the donor mouse was placed in supine position and a midline thoraco-abdominal incision was made. […] For orthotopic transplantation, the bowel was reflected cephalad, the colon was retracted to the animal's left side, and the seminal vesicles and testes were distracted caudally. […]

[1] = biological target: integrin αVβ3 on human umbilical vein endothelial cells (HUVEC) (human) (UniProt P06756); experiment: cell-based or functional assay
integrin αVβ3 on human umbilical vein endothelial cells (HUVEC) (human), sequence (P06756 31-1048, chain 1 of 2): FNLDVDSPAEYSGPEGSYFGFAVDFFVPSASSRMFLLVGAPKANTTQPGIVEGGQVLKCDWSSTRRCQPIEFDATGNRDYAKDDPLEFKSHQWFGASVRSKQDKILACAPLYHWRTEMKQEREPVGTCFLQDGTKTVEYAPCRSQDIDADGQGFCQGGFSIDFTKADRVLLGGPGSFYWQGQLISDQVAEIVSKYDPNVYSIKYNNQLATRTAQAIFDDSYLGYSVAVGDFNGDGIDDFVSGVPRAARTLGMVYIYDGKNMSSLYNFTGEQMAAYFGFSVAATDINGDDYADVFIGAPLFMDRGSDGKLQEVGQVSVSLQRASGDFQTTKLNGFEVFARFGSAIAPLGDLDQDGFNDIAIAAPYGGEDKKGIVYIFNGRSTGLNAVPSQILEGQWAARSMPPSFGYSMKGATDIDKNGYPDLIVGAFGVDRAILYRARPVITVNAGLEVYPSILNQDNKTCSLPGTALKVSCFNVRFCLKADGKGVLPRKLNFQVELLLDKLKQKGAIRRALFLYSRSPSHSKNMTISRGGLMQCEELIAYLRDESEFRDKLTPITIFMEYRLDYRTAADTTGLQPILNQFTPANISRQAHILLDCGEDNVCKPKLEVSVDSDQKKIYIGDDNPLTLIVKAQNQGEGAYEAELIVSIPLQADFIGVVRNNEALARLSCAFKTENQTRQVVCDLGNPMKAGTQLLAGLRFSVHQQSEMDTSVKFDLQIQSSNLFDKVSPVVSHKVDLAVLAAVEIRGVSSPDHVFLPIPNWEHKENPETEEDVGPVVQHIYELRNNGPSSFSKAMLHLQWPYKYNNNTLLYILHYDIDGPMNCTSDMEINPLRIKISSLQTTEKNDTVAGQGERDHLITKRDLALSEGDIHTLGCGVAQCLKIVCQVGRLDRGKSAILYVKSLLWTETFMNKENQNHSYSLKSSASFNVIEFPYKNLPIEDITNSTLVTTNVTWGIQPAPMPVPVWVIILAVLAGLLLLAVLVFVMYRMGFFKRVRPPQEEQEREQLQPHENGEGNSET
integrin αVβ3 on human umbilical vein endothelial cells (HUVEC) (human), sequence (P05106 27-788, chain 2 of 2, further chain): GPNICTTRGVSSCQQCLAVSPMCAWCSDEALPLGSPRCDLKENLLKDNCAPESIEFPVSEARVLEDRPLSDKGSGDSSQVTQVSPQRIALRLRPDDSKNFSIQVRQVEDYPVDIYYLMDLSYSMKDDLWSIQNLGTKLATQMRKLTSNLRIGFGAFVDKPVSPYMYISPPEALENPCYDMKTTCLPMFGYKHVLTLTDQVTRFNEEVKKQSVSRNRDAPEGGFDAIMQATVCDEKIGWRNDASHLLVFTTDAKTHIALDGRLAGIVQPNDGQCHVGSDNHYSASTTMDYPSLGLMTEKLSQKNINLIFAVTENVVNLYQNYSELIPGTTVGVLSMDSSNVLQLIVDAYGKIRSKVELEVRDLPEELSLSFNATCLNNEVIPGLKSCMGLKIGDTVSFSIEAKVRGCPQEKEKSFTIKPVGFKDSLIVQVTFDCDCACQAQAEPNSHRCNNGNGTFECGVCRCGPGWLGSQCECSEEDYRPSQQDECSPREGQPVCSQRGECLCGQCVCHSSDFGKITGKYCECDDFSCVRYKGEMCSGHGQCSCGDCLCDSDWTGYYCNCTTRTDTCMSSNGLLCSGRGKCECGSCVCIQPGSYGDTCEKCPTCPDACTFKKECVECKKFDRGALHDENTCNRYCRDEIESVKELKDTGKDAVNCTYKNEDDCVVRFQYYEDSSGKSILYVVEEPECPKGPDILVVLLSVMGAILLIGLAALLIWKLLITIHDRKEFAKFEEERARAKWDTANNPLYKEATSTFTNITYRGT

CO[C@H]1C[C@@H]2CC[C@@H](C)[C@@](O)(O2)C(=O)C(=O)N2CCCC[C@H]2C(=O)O[C@H]([C@H](C)C[C@@H]2CC[C@@H](O)[C@H](OC)C2)CC(=O)[C@H](C)/C=C(\C)[C@@H](O)[C@@H](OC)C(=O)[C@H](C)C[C@H](C)/C=C/C=C/C=C/1C [free rapamycin, rapamycin]
cell toxicity and death (MTS cell viability) (HUVEC): do not result in significant cell toxicity and death | concentration that did induce toxicity (HUVEC; human, 6 h): 3000 ng/mL | cell toxicity and death (MTS cell viability) (MCEC): do not result in significant cell toxicity and death | concentration that did induce toxicity (MCEC; mouse, 6 h): 3000 ng/mL | dose in Belzer UW solution that provided protection (aortic allograft): 1000 ng/mL

Targeted Rapamycin Micelles (TRaM): rapamycin micelles bearing the cyclic peptide arginine-glycine-aspartate (cRGD) on the surface, labeled with Dylight 680
increase of fluorescence in HUVEC over a 6 hours period, without brefeldin A (-BA) [1]: 88% | micelle internalization into HUVEC (confocal microscopy, Dylight 680 fluorescence) compared to untargeted RaM [1]: > 50%
